{"source": "paper PMC3083694", "about": "“Effects of Intermediates between Vitamins K2 and K3 on Mammalian DNA Polymerase Inhibition and Anti-Inflammatory Activity” (International Journal of Molecular Sciences, 2011)", "key": {"[1]": {"test_system": "LPS-induced TNF-α production in serum", "test": "In vivo LPS-induced inflammatory experiment, serum TNF-α", "set-up": "species or system mouse", "conditions": "female C57BL/6 mice; 100 mg/kg BW intraperitoneal, 30 min before LPS 250 μg/kg BW i.p.; serum 1 h after LPS", "protocol": "All animal studies were performed according to the guidelines outlined in the “Care and Use of Laboratory Animals” of Kobe University. The animals were anesthetized with pentobarbital before undergoing cervical dislocation. Female 8-week-old C57BL/6 mice that had been bred in-house with free access to food and water were used for all experiments. All of the mice were maintained under a 12-h light/dark cycle and housed at a room temperature of 25 °C.\nMice were intraperitoneally injected with 200 μL of MK-2 dissolved in corn oil at 100 mg/kg body weight (BW), or 200 μL of corn oil as a vehicle control. After 30 min, the mice were intraperitoneally injected with 200 μL of 250 μg/kg BW LPS dissolved in PBS or 200 μL of PBS as a vehicle control. After 1 h, the mice were killed, and blood samples were collected. The blood serum was separated by centrifugation at 15,000 × g for 10 min at 4 °C, and the TNF-α level in the serum was measured by ELISA."}, "[2]": {"target": "Calf primase of DNA polymerase α (Bos taurus, UniProt A0A3Q1MF00)", "sequence (A0A3Q1MF00 entry or part of it)": "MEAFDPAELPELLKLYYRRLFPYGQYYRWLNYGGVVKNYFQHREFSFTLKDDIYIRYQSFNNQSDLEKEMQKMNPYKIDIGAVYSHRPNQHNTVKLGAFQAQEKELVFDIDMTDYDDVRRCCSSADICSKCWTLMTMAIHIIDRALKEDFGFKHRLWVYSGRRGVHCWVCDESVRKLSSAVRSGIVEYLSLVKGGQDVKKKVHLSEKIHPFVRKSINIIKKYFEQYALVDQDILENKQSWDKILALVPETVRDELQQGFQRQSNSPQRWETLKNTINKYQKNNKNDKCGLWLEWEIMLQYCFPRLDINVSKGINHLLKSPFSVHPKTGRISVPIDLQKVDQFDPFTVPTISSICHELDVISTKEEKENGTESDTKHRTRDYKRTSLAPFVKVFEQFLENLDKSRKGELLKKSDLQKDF", "sequence (A0AAA9THK8 entry or part of it, further chain)": "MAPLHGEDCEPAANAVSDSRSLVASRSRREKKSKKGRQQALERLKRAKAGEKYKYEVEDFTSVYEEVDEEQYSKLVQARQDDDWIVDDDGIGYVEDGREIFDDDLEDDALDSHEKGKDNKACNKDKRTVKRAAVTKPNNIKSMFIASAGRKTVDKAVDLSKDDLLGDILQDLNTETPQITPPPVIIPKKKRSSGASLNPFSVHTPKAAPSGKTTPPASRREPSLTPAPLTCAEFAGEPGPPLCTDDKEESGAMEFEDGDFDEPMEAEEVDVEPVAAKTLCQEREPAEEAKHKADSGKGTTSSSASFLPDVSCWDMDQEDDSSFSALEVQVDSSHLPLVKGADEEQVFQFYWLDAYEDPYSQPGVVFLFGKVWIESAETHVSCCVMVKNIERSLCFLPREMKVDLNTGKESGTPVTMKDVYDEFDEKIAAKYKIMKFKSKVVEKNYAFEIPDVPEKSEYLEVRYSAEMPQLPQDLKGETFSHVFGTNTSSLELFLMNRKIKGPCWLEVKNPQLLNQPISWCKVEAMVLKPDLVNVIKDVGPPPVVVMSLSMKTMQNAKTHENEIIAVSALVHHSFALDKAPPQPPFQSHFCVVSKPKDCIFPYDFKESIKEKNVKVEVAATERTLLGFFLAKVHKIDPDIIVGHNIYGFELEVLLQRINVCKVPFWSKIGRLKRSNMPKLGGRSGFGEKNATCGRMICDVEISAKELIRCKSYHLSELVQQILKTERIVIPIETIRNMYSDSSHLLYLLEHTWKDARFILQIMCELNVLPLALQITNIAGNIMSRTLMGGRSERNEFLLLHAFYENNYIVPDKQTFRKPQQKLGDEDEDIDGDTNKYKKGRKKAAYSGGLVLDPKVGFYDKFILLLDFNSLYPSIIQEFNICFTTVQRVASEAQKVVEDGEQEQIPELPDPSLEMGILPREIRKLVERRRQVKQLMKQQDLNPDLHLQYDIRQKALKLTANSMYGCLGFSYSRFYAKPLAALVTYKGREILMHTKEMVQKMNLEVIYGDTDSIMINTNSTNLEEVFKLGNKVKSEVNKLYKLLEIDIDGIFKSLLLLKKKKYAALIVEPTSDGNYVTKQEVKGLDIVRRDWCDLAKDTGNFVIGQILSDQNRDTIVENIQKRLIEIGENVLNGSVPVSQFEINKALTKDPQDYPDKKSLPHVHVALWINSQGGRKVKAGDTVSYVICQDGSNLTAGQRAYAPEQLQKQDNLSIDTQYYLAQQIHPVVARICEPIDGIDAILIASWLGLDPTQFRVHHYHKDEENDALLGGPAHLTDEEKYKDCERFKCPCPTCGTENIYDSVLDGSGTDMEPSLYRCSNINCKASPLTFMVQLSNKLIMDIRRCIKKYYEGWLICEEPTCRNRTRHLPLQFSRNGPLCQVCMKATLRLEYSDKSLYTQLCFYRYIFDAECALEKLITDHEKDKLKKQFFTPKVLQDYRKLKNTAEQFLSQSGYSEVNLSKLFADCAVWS", "sequence (A0JNF4 entry or part of it, further chain)": "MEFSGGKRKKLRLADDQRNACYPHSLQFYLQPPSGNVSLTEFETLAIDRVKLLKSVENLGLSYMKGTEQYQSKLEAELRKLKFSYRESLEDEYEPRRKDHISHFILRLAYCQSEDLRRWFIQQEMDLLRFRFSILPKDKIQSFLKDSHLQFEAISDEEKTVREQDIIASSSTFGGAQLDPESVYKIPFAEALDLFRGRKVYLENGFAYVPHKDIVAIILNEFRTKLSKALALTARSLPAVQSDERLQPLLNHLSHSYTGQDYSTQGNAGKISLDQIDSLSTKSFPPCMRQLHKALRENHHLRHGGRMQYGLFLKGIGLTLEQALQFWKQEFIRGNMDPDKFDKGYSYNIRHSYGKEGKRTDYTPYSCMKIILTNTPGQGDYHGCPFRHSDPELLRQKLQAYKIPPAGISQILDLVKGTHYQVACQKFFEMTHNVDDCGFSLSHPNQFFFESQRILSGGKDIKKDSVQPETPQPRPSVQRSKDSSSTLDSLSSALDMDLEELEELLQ", "sequence (Q58D13 whole entry, further chain)": "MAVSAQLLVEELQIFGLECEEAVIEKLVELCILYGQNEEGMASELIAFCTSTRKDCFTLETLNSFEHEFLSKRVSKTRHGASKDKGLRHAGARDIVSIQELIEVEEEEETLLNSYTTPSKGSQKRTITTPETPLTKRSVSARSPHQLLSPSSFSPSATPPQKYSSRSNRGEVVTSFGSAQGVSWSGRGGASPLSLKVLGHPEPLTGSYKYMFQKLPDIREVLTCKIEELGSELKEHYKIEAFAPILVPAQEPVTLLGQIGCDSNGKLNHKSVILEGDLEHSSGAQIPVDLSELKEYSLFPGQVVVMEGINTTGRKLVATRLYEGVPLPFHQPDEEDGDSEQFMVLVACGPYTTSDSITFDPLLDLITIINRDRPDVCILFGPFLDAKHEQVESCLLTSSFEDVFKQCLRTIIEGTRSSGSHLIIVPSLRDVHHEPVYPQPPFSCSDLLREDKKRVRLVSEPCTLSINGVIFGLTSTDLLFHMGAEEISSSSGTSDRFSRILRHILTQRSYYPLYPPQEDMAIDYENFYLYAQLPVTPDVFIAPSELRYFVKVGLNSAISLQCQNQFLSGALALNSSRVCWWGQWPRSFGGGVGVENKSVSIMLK", "test": "DNA metabolic enzyme assay, calf primase of pol α", "type": "biochemical", "conditions": "other DNA metabolic enzyme; read-out: IC50 Value of MK-2, Calf primase of DNA polymerase α", "protocol": "(§1) Pols from mammals, a fish (cherry salmon), an insect (fruit fly) and a plant (cauliflower) were purified, and prokaryotic pols and other DNA metabolic enzymes, such as T7 RNA polymerase, T4 polynucleotide kinase and bovine deoxyribonuclease I, were purchased as described in our previous report. The activities of all pols and other DNA metabolic enzymes were measured as described in previous reports."}, "[3]": {"target": "T1, Human DNA polymerase η (Homo sapiens, UniProt Q9Y253)", "T1 construct": "made in house", "T1 sequence (Q9Y253 1-511 limits assumed)": "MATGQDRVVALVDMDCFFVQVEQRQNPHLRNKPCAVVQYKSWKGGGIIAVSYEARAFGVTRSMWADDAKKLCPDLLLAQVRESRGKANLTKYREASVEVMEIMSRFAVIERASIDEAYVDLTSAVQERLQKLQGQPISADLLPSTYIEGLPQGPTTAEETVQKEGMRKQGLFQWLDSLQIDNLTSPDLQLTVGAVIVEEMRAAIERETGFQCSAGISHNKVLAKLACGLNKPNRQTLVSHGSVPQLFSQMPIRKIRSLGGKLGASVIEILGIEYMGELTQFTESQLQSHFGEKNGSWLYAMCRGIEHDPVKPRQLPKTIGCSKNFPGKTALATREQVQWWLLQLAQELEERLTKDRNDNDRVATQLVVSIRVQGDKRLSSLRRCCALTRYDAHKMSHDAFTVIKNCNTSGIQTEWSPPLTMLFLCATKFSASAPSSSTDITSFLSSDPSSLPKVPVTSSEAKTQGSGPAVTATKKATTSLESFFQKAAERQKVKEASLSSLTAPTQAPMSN", "test": "DNA polymerase activity assay, human pol η", "type": "biochemical", "conditions": "Y-family pol; read-out: IC50 Value of MK-2, Human DNA polymerase η", "protocol": "as §1\nThe components of the pol assay were poly(dA)/oligo(dT)18 and dTTP as the DNA template-primer and 2′-deoxyribonucleoside 5′-triphosphate (dNTP) substrate, respectively. VK2, VK3, and their synthesized derivatives (i.e., MK-3, MK-2 and MK-1) were dissolved in dimethyl sulfoxide (DMSO) at various concentrations and sonicated for 30 s. The sonicated samples (4 μL) were mixed with 16 μL of each pol enzyme (final amount, 0.05 units) in 50 mM Tris-HCl (pH 7.5) containing 1 mM dithiothreitol, 50% glycerol and 0.1 mM EDTA, and kept at 0 °C for 10 min. […] Activity without the inhibitor was considered to be 100%, and the activity remaining at each concentration of inhibitor was determined relative to this value. […]"}, "[4]": {"test_system": "nuclear translocation of NF-κB p65 in RAW264.7 cells", "test": "LPS-induced nuclear translocation of NF-κB p65 (Western blot)", "type": "cell-based, mouse", "conditions": "10 μM MK-2 30 min, then 100 ng/mL LPS 30 min, LPS alone 4.47-fold", "protocol": "RAW264.7 cells on a 6-well plate at 5 × 10^5 cells/well were incubated with 10 μM of MK-2 or DMSO (1 μL/mL) as a vehicle control for 30 min, followed by treatment with 100 ng/mL of LPS for 30 min. After treatment, cells were harvested with lysis buffer consisting of 10 mM Hepes (pH 7.9), 10 mM KCl, 1.5 mM MgCl2 and 0.5 mM DTT containing protease inhibitors (1 mM phenylmethylsulfonyl fluoride [PMSF], 5 μg/mL of leupeptin and 5 μg/mL of aprotinin) and phosphatase inhibitors (10 mM NaF and 1 mM Na3VO4) and stood on ice for 15 min with occasional mixing. The mixture was centrifuged at 1000 × g for 10 min at 4 °C. […] The protein concentration was measured by using a bicinchoninic acid (BCA) assay kit in accordance with the manufacturer’s protocol. […]\nThe nuclear proteins (30–50 μg of protein) were boiled in a quarter-volume of sample buffer (1 M Tris-HCl [pH 7.5], 640 mM 2-mercaptoethanol, 0.2% bromphenol blue, 4% SDS and 20% glycerol) and then separated on 10% SDS polyacrylamide gels. […] The protein-antibody complex was visualized with ChemiLumiONE (Nacalai Tesque, Kyoto, Japan) and detected using an Image Reader (LAS-3000 Imaging System, Fuji Photo Film, Tokyo, Japan). The intensity of each band was analyzed using ImageJ, which was developed at the National Institute of Health."}}}
{"smiles": "CC(C)=CCC/C(C)=C/CC1=C(C)C(=O)c2ccccc2C1=O", "note": "[MK-2]", "values": [{"measurement": "Decrease of LPS-induced serum TNF-α production", "setting": "[1]", "result": 83.2, "unit": "%"}, {"measurement": "IC50", "setting": "[2]", "result": "> 200", "unit": "µM"}, {"measurement": "IC50", "setting": "[3]", "result": "37.8 ± 2.2", "unit": "µM"}, {"measurement": "LPS-stimulated nuclear translocation of NF-κB p65 relative to treatment without LPS", "setting": "[4]", "result": 2.04, "unit": "fold"}]}
